Consider 33 compounds from PMC6356581, “Fragment-Based Structural Optimization of a Natural Product Itampolin A as a p38α Inhibitor for Lung Cancer” (Marine Drugs, 2019).

What is called IC50 is the concentration that gives 50% inhibition.

The target in the first assay is MAPK14/p38α (Homo sapiens, UniProt Q16539). Description: p38α MAP kinase activity based on the rate of phosphorylation of ATF-2 (TR-FRET). It counts as biochemical. The following applies: 90 μM ATP, 0.4 μM GFP-ATF2 (19–96), 1 ng/mL MAPK14/p38α, 1 h RT; read-out: p38α MAP kinase inhibitory activity IC50. How it is done: 4.3. The p38α MAP Kinase Activity Based on the Rate of Phosphorylation of ATF-2
Sequence of MAPK14/p38α (Q16539 whole entry): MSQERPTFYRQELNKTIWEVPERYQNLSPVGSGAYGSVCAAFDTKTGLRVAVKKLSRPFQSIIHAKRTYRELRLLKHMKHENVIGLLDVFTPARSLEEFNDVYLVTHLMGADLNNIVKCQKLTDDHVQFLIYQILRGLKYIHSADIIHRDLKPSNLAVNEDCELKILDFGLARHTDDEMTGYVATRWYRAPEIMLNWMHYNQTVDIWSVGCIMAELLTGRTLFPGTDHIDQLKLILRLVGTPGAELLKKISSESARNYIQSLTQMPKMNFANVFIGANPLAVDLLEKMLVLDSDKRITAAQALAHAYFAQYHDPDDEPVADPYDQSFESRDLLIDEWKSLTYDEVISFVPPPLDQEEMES
Kinase reaction buffer composition: 50 mM HEPES (pH 7.5), 10 mM MgCl2, 0.01% BRIJ-35 and 1 mM EGTA. Titration MAPK14/p38α at 90 μM ATP: Prepare MAPK14/p38α in kinase buffer at a concentration of 500 ng/mL. Perform two-fold serial dilution using kinase buffer from 500 ng/mL, 16 dose points. Add 5 μL of the serially diluted MAPK14/p38α into the 384-well plate in triplicate. Prepare 1 mL of 0.8 μM substrate GFP-ATF2 (19–96) and 180 μMATP in kinase reaction buffer. The reaction was carried out by adding 5 μL of the substrate GFP-ATF2 (19–96) and ATP solution into each well of the assay plate. Seal the assay plate and incubate for 1 h at room temperature (RT).
An amount of 4 μL MAPK14/p38α was added to each well of the 384-well assay plate. Incubate for 15 min at RT. Finally, 4 μL substrate GFP-ATF2 (19–96) and ATP in kinase reaction buffer were added to start the reaction. The final concentrations of MAPK14/p38α, Substrate, and ATP were 1 ng/mL, 0.4 μM, and 90 μM, respectively. Incubate for 1 h at RT. Add 10 μL/well of antibody solution. The final concentrations of EDTA and antibody were 10 mM and 2 nM respectively. Incubate for 30 min at RT.
In general terms: TR-FRET usually uses a lanthanide donor and a delayed reading to cut background.
As to `CCOc1ccc(CC(=O)N[C@H](Cc2cc(Br)c(OC)c(Br)c2)C(=O)NCCc2cc(Br)c(O)c(Br)c2)cc1` [Compound 4b], the concentration for half-maximal inhibition (IC50) was determined as 492 ± 46.2 nM. For `CCCCOc1ccc(CC(=O)N[C@H](Cc2cc(Br)c(OC)c(Br)c2)C(=O)NCCc2cc(Br)c(O)c(Br)c2)cc1` [Compound 4d], the IC50 was found to be 806 ± 139 nM. With `COc1c(Br)cc(C[C@@H](NC(=O)Cc2cccc(Cl)c2)C(=O)NCCc2cc(Br)c(O)c(Br)c2)cc1Br` [Compound 4i], the IC50 is 91 ± 11.1 nM. On the same count and under the same terms, then `COc1c(Br)cc(C[C@@H](NC(=O)Cc2ccc(Br)cc2)C(=O)NCCc2cc(Br)c(O)c(Br)c2)cc1Br` [Compound 4k], with 832 ± 12.1 nM; and `COc1c(Br)cc(C[C@@H](NC(=O)Cc2ccc(F)cc2)C(=O)NCCc2cc(Br)c(O)c(Br)c2)cc1Br` [Compound 4l], with 618 ± 87.7 nM.

As to `COc1c(Br)cc(C[C@@H](NC(=O)Cc2ccccc2F)C(=O)NCCc2cc(Br)c(O)c(Br)c2)cc1Br` [Compound 4m], the IC50 turned out to be 78.6 ± 59.2 nM.

As to `COc1c(Br)cc(C[C@@H](NC(=O)Cc2ccc(OCCCN3CCOCC3)cc2)C(=O)NCCc2cc(Br)c(O)c(Br)c2)cc1Br` [Compound 4o], the IC50 was 138 ± 13.6 nM. Same read-out and setting: the result for `COc1ccc(NC(=O)N[C@H](Cc2cc(Br)c(OC)c(Br)c2)C(=O)NCCc2cc(Br)c(O)c(Br)c2)cc1` [Compound 5a] reads 112 ± 12 nM; that for `CCOc1ccc(NC(=O)N[C@H](Cc2cc(Br)c(OC)c(Br)c2)C(=O)NCCc2cc(Br)c(O)c(Br)c2)cc1` [Compound 5b], 346 ± 18.4 nM. Still for that read-out and setting: then `CCCOc1ccc(NC(=O)N[C@H](Cc2cc(Br)c(OC)c(Br)c2)C(=O)NCCc2cc(Br)c(O)c(Br)c2)cc1` [Compound 5c], with 167 ± 23.9 nM.

For `CCCCOc1ccc(NC(=O)N[C@H](Cc2cc(Br)c(OC)c(Br)c2)C(=O)NCCc2cc(Br)c(O)c(Br)c2)cc1` [Compound 5d], the half-maximal inhibitory concentration (IC50) was determined as 691 ± 38.4 nM.

Turning to `COc1c(Br)cc(C[C@@H](NC(=O)Nc2cccc(Cl)c2)C(=O)NCCc2cc(Br)c(O)c(Br)c2)cc1Br` [Compound 5i], the IC50 was determined as 51.3 ± 4.5 nM. For `COc1c(Br)cc(C[C@@H](NC(=O)Nc2ccccc2Cl)C(=O)NCCc2cc(Br)c(O)c(Br)c2)cc1Br` [Compound 5j], the IC50 came out at 448 ± 64.1 nM. The same measure, in the same setting: the result for `COc1c(Br)cc(C[C@@H](NC(=O)Nc2ccc(Br)cc2)C(=O)NCCc2cc(Br)c(O)c(Br)c2)cc1Br` [Compound 5k] reads 90.3 ± 2.7 nM; that for `COc1c(Br)cc(C[C@@H](NC(=O)Nc2ccc(F)cc2)C(=O)NCCc2cc(Br)c(O)c(Br)c2)cc1Br` [Compound 5l], 110 ± 18.8 nM. Take `COc1c(Br)cc(C[C@@H](NC(=O)Nc2ccccc2F)C(=O)NCCc2cc(Br)c(O)c(Br)c2)cc1Br` [Compound 5m]: the concentration for half-maximal inhibition (IC50) was 71.4 ± 19.6 nM.

Turning to `COc1c(Br)cc(C[C@@H](NC(=O)Nc2ccc(C)cc2)C(=O)NCCc2cc(Br)c(O)c(Br)c2)cc1Br` [Compound 5n], the IC50 is 279 ± 28.9 nM. In the case of `COc1c(Br)cc(CC(NC(=O)Nc2ccc(OCCCN3CCOCC3)cc2)C(=O)NCCc2cc(Br)c(O)c(Br)c2)cc1Br` (stereo not shown) [Compound 5o], the half-inhibitory concentration (IC50) turned out to be 134 ± 26.3 nM. Consider `COc1ccc(NC(=O)NCCc2cc(Br)c(OC)c(Br)c2)cc1` [Compound 6a], for which the IC50 worked out at 263 ± 3.3 nM.

Turning to `CCOc1ccc(NC(=O)NCCc2cc(Br)c(OC)c(Br)c2)cc1` [Compound 6b], the IC50 came to 221 ± 4.2 nM. With `CCCOc1ccc(NC(=O)NCCc2cc(Br)c(OC)c(Br)c2)cc1` [Compound 6c], the 50% inhibitory concentration (IC50) amounted to 701 ± 7.4 nM. As for `CCC(C)Oc1ccc(NC(=O)NCCc2cc(Br)c(OC)c(Br)c2)cc1` (stereo not shown) [Compound 6e], the IC50 was 920.3 ± 6.1 nM. For `COCCOc1ccc(NC(=O)NCCc2cc(Br)c(OC)c(Br)c2)cc1` [Compound 6g], the IC50 was determined as 11.7 ± 3 nM. For `COc1c(Br)cc(CCNC(=O)Nc2ccc(OC(C)C)cc2)cc1Br` [Compound 6h], the IC50 came out at 329 ± 44.2 nM. In the case of `COc1c(Br)cc(CCNC(=O)Nc2cccc(Cl)c2)cc1Br` [Compound 6i], the half-inhibitory concentration (IC50) was found to be 17.5 ± 2.4 nM.

Turning to `COc1c(Br)cc(CCNC(=O)Nc2ccccc2Cl)cc1Br` [Compound 6j], the concentration for half-maximal inhibition (IC50) worked out at 71.2 ± 4.5 nM. Still for that read-out and setting: then `COc1c(Br)cc(CCNC(=O)Nc2ccc(Br)cc2)cc1Br` [Compound 6k], with 169 ± 2.6 nM; and `COc1c(Br)cc(CCNC(=O)Nc2ccc(F)cc2)cc1Br` [Compound 6l], with 21.5 ± 4.6 nM; and `COc1c(Br)cc(CCNC(=O)Nc2ccccc2F)cc1Br` [Compound 6m], with 13.6 ± 3 nM. The same measure, in the same setting: then `COc1c(Br)cc(CCNC(=O)Nc2ccc(C)cc2)cc1Br` [Compound 6n], with 300 ± 11.7 nM; and `COc1c(Br)cc(CCNC(=O)Nc2ccc(OCCCN3CCOCC3)cc2)cc1Br` [Compound 6o], with 7.9 ± 1.7 nM.

The next assay deals with A549 cells. Description: MTT cell proliferation inhibition assay. Type of assay: cell-based. Conditions: Homo sapiens; A549, 48 h incubation. How it is done:
4.4. MTT Assay The A549 cell lines were cultured using DMEM and RPMI, respectively, in standard humidified incubation conditions at 37 °C in 5% CO2. Then, the cancer cells (1000/well) were placed on 96-well plates in triplicate. After 24 h incubation, cells were treated with a series of concentrations of the brominated tyrosine derivatives (1, 10, 20, 80 μmol/L). The positive control contained the same concentrations of BIRB-796, and the negative control received the same volume of DMSO. After 48h incubation, cells were stained with 5% MTT, and the optical density was recorded at an absorbance wavelength of 570 nm.
In the case of `COc1c(Br)cc(CCNC(=O)Nc2ccc(OCCCN3CCOCC3)cc2)cc1Br` [Compound 6o], the IC50 stood at 660 nM.

For the next assay, the system named is non-small cell lung cancer.
Assay: not given
Conditions: previous study; cited from earlier work. More on the design: method as in doi:10.2174/1570179414666170215092631.
`COc1c(Br)cc(C[C@@H](NC(=O)Cc2ccc(OCCCNC(C)=O)cc2)C(=O)NCCc2cc(Br)c(O)c(Br)c2)cc1Br` [Itampolin A]: the “antitumor activity against non-small cell lung cancer” value is recorded as “potent concentration-dependent antitumor activity”.

The next assay has as its system non-small cell lung A549 cells.
Assay: not given
Further details: method as in doi:10.2174/1570179414666170215092631. The following applies: previous study; cited from earlier work.
As for `COc1c(Br)cc(C[C@@H](NC(=O)Cc2ccc(OCCCNC(C)=O)cc2)C(=O)NCCc2cc(Br)c(O)c(Br)c2)cc1Br` [(−)-itampolin A], the “inhibitory activity against non-small cell lung A549 cells” value was “significant inhibitory activity”.
